From US11859252B2, “Diagnostic and therapeutic methods for cancer” (Genentech, Inc., priority 2017, dated 2024)
“Also recorded” adds a separate entry of the source.

Tests used:
Type in all cases: cell-based
A549 cells = assay: 12×12 matrix titration, Bliss excess, […]-GLO; conditions: 3 days
Experimental: For combination synergy studies, cells were plated in 384-well plates (Corning) and treated with varying concentrations of compound, either alone or in combination for 72 hours. Cell viability was determined using CellTiter-Glo Luminescent Cell Viability Assay (Promega, G7573). Synergistic effects were determined using the Bliss independence analysis methods (Greco et al. Pharmacol. Rev. 47: 331-385, 1995; Chou and Talalay. Adv. Enzyme Regul. 22:27-55, 1984; Chou. Cancer Res. 70: 440-446, 2010; Bliss. Ann. Appl. Biol. 25: 31, 1939).

pMEK, pERK, pRSK, pAKT = assay: Immunoblot of pathway markers after compound treatment; conditions: for induction of pMEK by PI3K inhibition: A549 and HCT116 cells, FIGS. 7B-7D
Experimental: Cells lysed in lysis buffer (0.5% NP40, 20 mM Tris, pH 7.5, 137 mM NaCl, 10% glycerol, 1 mM EDTA) plus protease inhibitor mixture-complete mini (Roche Applied Science, 11836170001) and phosphatase inhibitor mix (Thermo, 78426). Lysates were centrifuged at 15,000 rpm for 10 minutes and the protein concentration determined using BCA (Thermo, 23227). Equal amounts of protein were subjected to SDS-PAGE NuPAGE 4-12% Bis-Tris Gel (Novex, WG-1403) and transferred to nitrocellulose membrane (BioRad, 170-4159). After blocking in blocking buffer (Li-Cor, 927-40000), membranes were incubated with the indicated primary antibodies and analyzed either by the addition of secondary antibodies IRDye 680LT Goat anti-Mouse IgG (H+L) (Li-Cor, 926-68050) or IRDye 800CW goat anti-Rabbit IgG (H+L) (Li-Cor, 926-32211). The membranes were visualized on the LiCor Odyssey CLx Scanner.

[1] = system: A549 KRAS-mutant lung cancer cell line; assay: Tool compound combination screen with AZ-628; conditions: 1 μM AZ-628 versus DMSO, FIG. 1D-1E
Experimental: A compound library comprising 480 compounds arrayed in 9-point dose response was screened in the absence or presence of a fixed dose of either AZ-628 or DMSO in A549 cells. A549 cells were seeded into 384 well plates, and compound was added 24 h later. Cell viability was determined 120 h post-compound addition (CellTiter Glo). Curves were fitted, and both IC50 and mean viability metrics were calculated. The IC50 is the dose at which inhibition is 50% relative to untreated wells. The mean viability is the average of the fitted viabilities at each tested dose. Mean viability is equivalent to the area under the log-dose/viability curve divided by the total number of tested doses. All data were fitted using Genedata Screener (GDS) software. The combination metric was the difference in mean viability between the AZ-628 treated arm and the DMSO treated arm for each compound.

KRAS mutant cell lines = assay: 3-day […]-GLO viability assay of RAF inhibitors, KRAS mutant lines; conditions: single agent, FIG. 1A
Experimental: (§1) Seeding densities were optimized for each cell line to obtain 70-80% confluence after 4 days. The cells were plated into 384-well plates (Griener, 781091) and then treated with compound the following day in a final DMSO concentration of 0.1%. The relative numbers of viable cells were measured by luminescence using CellTiter-Glo (Promega, G7573). Viability curves were generated using a four-parameter fit in GraphPad Prism 6.

BRAF-V600E cell lines = assay: 3-day […]-GLO viability assay of RAF inhibitors, BRAF-V600E lines; conditions: single agent; BRAF-V600E mutant cell lines; FIG. 1A
Experimental: as §1

pMEK = assay: Phospho (Ser 217/221)/Total MEK1/2 assay; conditions: KRAS mutant; ratio of P-MEK and total MEK; FIG. 1B
Experimental: Cells were plated at a density of 20,000 cells per 96-well and treated with compound the following day for two hours in a final concentration of 0.2% DMSO. After two hours, the cells were lysed according to manufacturer's protocol (Meso Scale Discovery, K15129D), and the lysates were added to BSA-blocked plates for overnight capture at 4° C. The following day the assay plates were washed three times with TBST and the detection antibody was added for one hour at RT. The plates were then washed three times with TBST. 1× read buffer was added to the plate and immediately read on the Meso Scale Discovery SECTOR Imager 6000. Curves were generated using Graph Pad Prism 6.

RAS-GTP = assay: Ras activity assay (RAF1-RBD pull-down); conditions: A549, 24 hours, RAF1-RBD pull-down, FIG. 7E
Experimental: Levels of active GTP-loaded Ras were determined by GST-Raf-RBD pull-down assay (Thermo Scientific, 16117). In brief, GST-Raf-RBD fusion proteins were incubated with glutathione beads, and cells were collected in lysis buffer as recommended by the manufacturer. The cell lysates were incubated with the GST-Raf-RBD immobilized beads for 1.5 hours at 4° C. Bound proteins were eluted with SDS sample buffer and analyzed by Western blot.

Question: Which “synergy with AZ-628 (Bliss excess)” value (A549 cells; full-dose Bliss matrix, FIG. 1G) does the source give for `CNS(=O)(=O)Nc1nccc(Cc2c(C)c3ccc(Oc4ncccn4)cc3oc2=O)c1F` [CH-6766] here?
Answer: less synergistic with AZ-628

Question: And the “induction of pMEK” value (pMEK, pERK, pRSK, pAKT; A549 cells, 24 hours at 1 μM, FIG. 1F)?
Answer: do not induce pMEK

Question: For `O=C(NOC[C@H](O)CO)c1ccc(F)c(F)c1Nc1ccc(I)cc1F` [PD901], which “hit ranking / mean viability difference with AZ-628” value [1] is on record?
Answer: scored highest among the compounds tested

Question: With `O=C(c1c(F)ccc(NS(=O)(=O)N2CC[C@@H](F)C2)c1F)c1c[nH]c2ncc(-c3cnc(C4CC4)nc3)cc12` [PLX-8394] as the compound, how does the “activity in cell viability assay” value (KRAS mutant cell lines) read?
Answer: but not in KRAS mutant cell lines

Question: And the “activity in cell viability assay” value (BRAF-V600E cell lines)?
Answer: showed activity in BRAF-V600E mutant cell lines

Question: And the “paradoxical activation of downstream pMEK” value (pMEK)?
Answer: do not induce paradoxical activation

Question: What about the “synergy with cobimetinib (Bliss excess)” value (A549 cells; FIG. 2A) of the same compound?
Answer: did not synergize with MEK inhibitors in KRAS mutant cell lines

Question: For `CC(C)(C)c1nc(-c2cccc(NS(=O)(=O)c3c(F)cccc3F)c2F)c(-c2ccnc(N)n2)s1` [dabrafenib], which “activity in cell viability assay” value (KRAS mutant cell lines) is on record?
Answer: but not in KRAS mutant cell lines

Question: What about the “activity in cell viability assay” value (BRAF-V600E cell lines) of the same compound?
Answer: showed activity in BRAF-V600E mutant cell lines

Question: And the “paradoxical activation of downstream pMEK” value (pMEK)?
Answer: led to paradoxical activation of downstream pMEK in KRAS mutant tumors

Question: `CS(=O)(=O)N1CCN(Cc2cc3nc(-c4cccc5[nH]ncc45)nc(N4CCOCC4)c3s2)CC1` [pictilisib] was tested. Which “hit ranking / mean viability difference with AZ-628” value [1] did it give?
Answer: notable hits; also recorded: among the top hits of the screen

Question: What about the “pERK and pRSK levels” value (pMEK, pERK, pRSK, pAKT; A549, 24 hours, dose-dependent, FIG. 7D) of the same compound?
Answer: increased pERK and pRSK levels

Question: And the pAKT inhibition (pMEK, pERK, pRSK, pAKT; A549, pictilisib alone, 24 hours, FIG. 7G)?
Answer: robustly inhibit pAKT

Question: What about the “induction of pMEK by PI3K inhibition” value (pMEK, pERK, pRSK, pAKT; 24 hours) of the same compound?
Answer: doing so at lower concentrations; also recorded: dose-dependent induction of pMEK

Question: And the RAS-GTP levels (RAS-GTP)?
Answer: dose-dependent induction of RAS-GTP levels

Question: What about the RAS-GTP levels (RAS-GTP; listed as Pictilisib) of the same compound?
Answer: increase levels of RAS-GTP (albeit at higher concentrations) similar to that induced by cobimetinib

Question: For `O=C(NC[C@H](O)CO)c1ccncc1Nc1ccc(I)cc1F` [pimasertib], which “hit ranking / mean viability difference with AZ-628” value [1] is on record?
Answer: scored highest among the compounds tested

Question: For `COc1cc(F)c(F)c(Nc2ccc(I)cc2F)c1NS(=O)(=O)C1(C[C@H](O)CO)CC1` [refametinib], which “hit ranking / mean viability difference with AZ-628” value [1] is on record?
Answer: scored highest among the compounds tested

Question: Which results are given for `Cc1nc(-c2cn3c(n2)-c2ccc(-c4cnn(C(C)(C)C(N)=O)c4)cc2OCC3)n(C(C)C)n1` [taselisib]?
Answer: hit ranking / mean viability difference with AZ-628 [1]: notable hits; induction of pMEK by PI3K inhibition (pMEK, pERK, pRSK, pAKT; 24 hours): doing so at lower concentrations
